Read-outs that look alike come from different tables or passages of the source.
Assay: In vitro release of conjugates in phosphate buffer (Method E)
Type: physicochemical
Experimental: In vitro release for conjugates in buffer: In separate containers Compound 2a (˜0.1-0.5 mg/mL), Compound 3a (˜0.5-5 mg/mL) and Compound 4a (˜0.2-1 mg/mL) were dissolved in 100 mM phosphate buffer pH 7.5 (or other pH values as indicated). The conjugates were filtered through a 0.2 micron filter into a HPLC vial. The HPLC sample vials were incubated at 37° C. and injected at various intervals on a HPLC system with C18 silica column applying an acetonitrile gradient with 0.1% TFA; retention times observed were sunitinib ˜3.5 minutes and conjugates either ˜2.2 minutes for Compound 2a or ˜10.8 minutes for Compounds 3a or 4a. Release data for the t1/2 values were obtained from the slope of the linear fit to a plot of ln(A(conjugate)/A0(conjugate)) vs. time, according to the first order rate law.
The half-lives observed for several sunitinib conjugates of the invention were determined in buffer and plasma according to the descriptions in “Method E” provided in the Experimental.

half-life (100 mM phosphate buffer pH 7.5, 37° C., read-out: Release half-life, Phosphate pH 7.5): ~3 min | half-life (phosphate buffer pH 6.8, 37° C., read-out: Release half-life, Phosphate pH 6.8): ~10 min
Structure (SMILES): CCN(CC)CCN(C(=O)OCC(O)CO)C(=O)c1c(C)[nH]c(/C=C2\C(=O)Nc3ccc(F)cc32)c1C (centres unmarked) [Compound 1e, (Z)-2,3-dihydroxypropyl 2-(diethylamino)ethyl(5-((5-fluoro-2-oxoindolin-3-ylidene)methyl)-2,4-dimethyl-1H-pyrrole-3-carbonyl)carbamate]

Reference: patent publication US9827326B2, “Polymer-sunitinib conjugates” (Nektar Therapeutics, priority 2010, dated 2017)
